{
  "source": "patent US10420813B2",
  "about": "“Competitive inhibitors of invariant chain expression and/or ectopic clip binding” (Regents of the University of Colorado, a body corporate, priority 2007, dated 2019)",
  "key": {"[1]": {"conditions": "background statement; cited from earlier work"}, "Raji cells": {"system": "Raji cells", "experiment": "Binding of biotinylated peptide to cells (Streptavidin-PE)", "type": "cell-based, human", "conditions": "50 microMolar", "procedure": "(§1) The ability of synthetic peptides to compete with binding of CLIP peptides and result in the cell surface expression of CD1d was determined.\n(§2) Results: The results shown in FIG. 5 are expressed in histogram analyses. The Y axis represents cell number of the 5000 live cells versus the X axis which is a reflection of relative Fitc fluorescence versus Streptavidin-PE (eBioscience, Cat. #12-4317) that will bind with high affinity to cell-bound biotinylated peptides. The distance between the histogram from the isotype control staining versus the histogram reflecting the specific stain and is a measure of level of cell surface CD1d.\n(§3) Cell Culture Conditions: The Raji and Daudi cell lines were purchased from American Type Culture Collection, were thawed, and grown in RPMI 1640 medium supplemented with standard supplements, including 10% fetal calf serum, gentamycin, penicillin, streptomycin, sodium pyruvate, HEPES buffer, 1-glutamine, and 2-ME.\n(§4) Protocol: Cells were plated into a 12 well plate with 3 mls total volume containing approximately 1.5×10^6/well for Daudi cells and 3.0×10^6/well for Raji cells. Treatment groups included no treatment as control and biotinylated […] (SEQ ID NO: 2) (also referred to as MKN 5) at 50 microMolar final concentration based on the reported molarity of the synthesized compounds.\n(§5) The cells were incubated at 37° C. in an atmosphere containing 5% CO2 and approximately 92% humidity. The cells were incubated for 4 and 24 hours. At each time point, the cells from that experimental time were harvested and stained for flow cytometric analysis of cell surface expression of CD1d by staining with PE anti-human CD1d (eBioscience, clone 51.5, cat. #12-00016-71).\n(§6) Harvested cells were stained using standard staining procedure that called for a 1:100 dilution of PE anti-CD1d. Following staining on ice for 25 minutes, cells were washed with PBS/FCS and resuspended in 100 microliters and added to staining tubes containing 400 microliters of PBS. Samples were acquired and analyzed on a Coulter Excel Flow Cytometer."}, "Daudi cells": {"system": "Daudi cells", "experiment": "Binding of biotinylated peptide to cells (Streptavidin-PE)", "type": "cell-based, human", "conditions": "50 microMolar", "procedure": "as §1, §2, §3, §4, §5, §6"}, "[2]": {"system": "cell surface CD1d on Daudi cells", "experiment": "Cell surface expression of CD1d", "type": "cell-based, human", "conditions": "50 microMolar", "procedure": "as §1, §2, §3, §4, §5, §6"}, "[3]": {"system": "cell surface CD1d on Raji cells", "experiment": "Cell surface expression of CD1d", "type": "cell-based, human", "conditions": "50 microMolar", "procedure": "as §1, §2, §3, §4, §5, §6"}, "[4]": {"system": "cell surface CD74 on Daudi cells", "experiment": "Cell surface CD74 by flow cytometry", "type": "cell-based, human", "conditions": "24 and 48 hours", "procedure": "(§7) The ability of MKN1 (bioCLIP) to alter cell surface CLIP and CD74 levels was determined using Raji or Daudi cells.\n(§8) Data were analyzed by histogram with Y axis represents cell number of the 5000 live cells versus the X axis which is a reflection of relative FITC fluorescence with either antibodies to CLIP or CD74. The distance between the histogram from the isotype control staining versus the histogram reflecting the specific stain and is a measure of level of cell surface CLIP or CD74 when staining a population of live Raji or Daudi cells.\nas §3\n(§9) Protocol: Cells were plated into a 12 well plate with 3 mls total volume containing approximately 0.5×10^6/mL for Daudi cells and 0.5×10^6/mL for Raji cells. […]\n(§10) Harvested cells were stained using standard staining procedure that called for a 1:100 dilution of Fitc-anti-human CLIP or CD74 antibody (Fitc, Pharmingen, Cat #554647) or isotype control. […] Samples were acquired and analyzed on a Coulter Excel Flow Cytometer."}, "[5]": {"system": "cell surface CD74 on Raji cells", "experiment": "Cell surface CD74 by flow cytometry", "type": "cell-based, human", "conditions": "24 and 48 hours", "procedure": "as §7, §8, §3, §9, §10"}, "[6]": {"system": "cell surface CLIP on Raji cells", "experiment": "Cell surface CLIP by flow cytometry", "type": "cell-based, human", "conditions": "24 and 48 hours", "procedure": "(§11) Kinetics of CLIP displacement from the surface of model B cells lines (Daudi and Raji) in response to thymic nuclear protein mixture was determined.\n(§12) Results were expressed in histogram analyses (FIG. 3). The Y axis represents cell number of the 5000 live cells versus the X axis which is a reflection of relative Fitc fluorescence. The distance between the histogram from the isotype control staining versus the histogram reflecting the specific stain is a measure of level of cell surface CLIP on a population of live Raji or Daudi cells as indicated. […]\n(§13) Harvested cells were stained using standard staining procedure that called for a 1:100 dilution of Fitc-anti-human CLIP or isotype control. […] Samples were acquired and analyzed on a Coulter Excel Flow Cytometer.\nas §7\n(§14) Data were analyzed by histogram with Y axis represents cell number of the 5000 live cells versus the X axis which is a reflection of relative FITC fluorescence with either antibodies to CLIP or CD74. […]\n(§15) Harvested cells were stained using standard staining procedure that called for a 1:100 dilution of Fitc-anti-human CLIP or CD74 antibody (Fitc, Pharmingen, Cat #554647) or isotype control. […] Samples were acquired and analyzed on a Coulter Excel Flow Cytometer. […]"}, "[7]": {"system": "cell surface CLIP on Daudi cells", "experiment": "Cell surface CLIP by flow cytometry", "type": "cell-based, human", "conditions": "24 and 48 hours", "procedure": "as §11, §12, §13, §7, §14, §15"}},
  "note": "No end group written: not given here.",
  "data": [
    {"compound": "C=CC[C@@H]1/C=C(\\C)C[C@H](C)C[C@H](OC)[C@H]2O[C@@](O)(C(=O)C(=O)N3CCCC[C@H]3C(=O)O[C@H](/C(C)=C/[C@@H]3CC[C@@H](O)[C@H](OC)C3)[C@H](C)[C@@H](O)CC1=O)[C@H](C)C[C@@H]2OC", "note": "[FK506, tacrolimus]", "values": [
      {"measurement": "immunosuppressive activity relative to cyclosporin", "setting": "[1]", "value": "10-100 times greater than cyclosporin"}
    ]},
    {"compound": "Biotinylated FRIMAVLAS: biotinylated FRIMAVLAS (SEQ ID NO: 2), also referred to as MKN 5 (also: biotinylated, position not given here)", "values": [
      {"measurement": "binding of biotinylated peptide to cells", "setting": "Raji cells; 4 hours", "value": "bound with high affinity"},
      {"measurement": "binding of biotinylated peptide to cells", "setting": "Raji cells; 24 hours", "value": "Less binding"},
      {"measurement": "binding of biotinylated peptide to cells", "setting": "Daudi cells; 4 hours", "value": "bound with high affinity"},
      {"measurement": "binding of biotinylated peptide to cells", "setting": "Daudi cells; 24 hours", "value": "Less binding"},
      {"measurement": "cell surface expression of CD1d", "setting": "[2]; 4 hours", "value": "marginally"},
      {"measurement": "cell surface expression of CD1d", "setting": "[2]; 24 hours", "value": "slightly more"},
      {"measurement": "cell surface expression of CD1d", "setting": "[3]; 4 hours", "value": "marginally"},
      {"measurement": "cell surface expression of CD1d", "setting": "[3]; 24 hours", "value": "slightly more"}
    ]},
    {"compound": "SGG GSK MRM ATP LLM QAL Y [MKN1 (bioCLIP)]", "values": [
      {"measurement": "cell surface CD74 level", "setting": "[4]", "value": "alters"},
      {"measurement": "cell surface CD74 level", "setting": "[5]", "value": "alters"},
      {"measurement": "cell surface CLIP level", "setting": "[6]", "value": "alters"},
      {"measurement": "cell surface CLIP level", "setting": "[7]", "value": "alters"}
    ]}
  ]
}
